Measured values from patent US20170334919A1, “2-((4-AMINO-3-(3-FLUORO-5-HYDROXYPHENYL)-1H-PYRAZOLO[3,4-D]PYRIMIDIN-1 -YL)METHYL)-3-(2-(TRIFLUORO-MET HYL)BENZYL)QUINAZOLIN-4(3H)-ONE DERIVATIVES AND THEIR USE AS PHOSPHOINOSITIDE 3-KINASE INHIBITORS” (RESPIVERT LTD., priority 2013, published 2017).

What was measured:
[1] = tested on: PI3K δ (Akt phosphorylation in d-U937 cells); assay: PI3K δ cell based assay: H2O2-induced Akt phosphorylation in d-U937 cells; conditions: Homo sapiens, dU937; inhibition of induced Akt phosphorylation; read-out: Cellular Activity REC50 values in d-U937 cells, H2O2 stimulus
Protocol: As a means of assessing PI3K δ activation in response to stimuli, the phosphorylation status of the protein, Akt, a downstream product of PI3Kδ, signaling was determined.
U937 cells, obtained from a human, leukemic, monocyte lymphoma cell line, were differentiated to macrophage-type cells by incubation with PMA (100 ng/mL) for 48 to 72 hr. Cells were then pre-incubated with either the test compound or vehicle for 2 hr and were then stimulated briefly by exposure to H2O2 (10 mM, 5-7 min) and the reaction stopped by replacing the media with 4% formaldehyde solution. […] After washing with buffer (PBS containing 0.1% Triton X-100), cells were incubated with an HRP-conjugated secondary antibody (Dako) and the resultant signal was determined colorimetrically (OD: 450 nm with a reference wavelength of 655 nm) using TMB substrate (substrate reagent pack supplied by R&D Systems, Inc.).
This reaction was stopped by the addition of H2SO4 solution (100 μL). […] After washing with buffer (PBS containing 0.1% Triton X-100) 1% SDS (100 μL) was added to each well and the plates were shaken lightly for 1 hr prior to measuring the absorbance at 595 nm (Varioskan® Flash, Thermo-Fisher Scientific). The measured OD450-655 readings were corrected for cell number by dividing the OD450-655 by the D595 readings. The ratio of pAkt signal to total Akt signal was used to quantitate the extent of PI3K δ activation. […]

IFNγ-primed U937 cells = assay: Superoxide anion production assay (zymosan-induced ROS); type: cell-based; conditions: Homo sapiens, U-937; read-out: REC50, Zymosan-induced ROS production in IFNγ-primed U937 cells
Protocol: As a means of assessing PI3Kδ dependent cell function, superoxide anion production in IFNγ-primed U937 cells was evaluated by a chemiluminescence assay. The U937 cells (purchased from ATCC, Manassas, Va.) were maintained in RPMI 1640 (Invitrogen Ltd., Paisley, UK) with 10% FCS at 37° C. The cells were suspended at a density of 10^7cells/mL in 40 mL 10% FCS RPMI 1640, and treated with 20 μL of 100 μg/mL IFNγ solution (final concentration: 50 ng/mL), and incubated at 37° C., 5% CO2 for 4 days.
IFNγ-primed U937 cells were seeded at 0.2×10^6 cells/well in a 96-well plate, and pre-incubated with test compounds for 2 hr in starvation media (0.5% FCS RPMI1640-phenol red free). Zymosan A (10 mg) from Saccharomyses cerevisiae (ex Sigma-Aldlich) was resuspended in 1 mL of 150 mM NaCl and boiled at 100° C. for 15 min. After boiling, Zymosan particles were washed with 1 mL of PBS twice, and incubated with 0.5 mL of BioParticles™ opsonized reagents (Life technologies) for 60 min at 37° C. […] Chemiluminescence indicating released superoxide anion was measured every 15 min up to 60 min by luminometric measurement (Varioskan® Flash, Thermo-Fisher Scientific).
The data at 60 min after incubation was used for analysis. […] The relative EC50 values were calculated from the concentration-response curves generated by the serial dilutions of the test compounds using XL-Fit (idbs, Guildford, UK).

[2] = tested on: LPS-induced airway neutrophilia in mice; assay: LPS-induced airway neutrophil accumulation in mice; type: in vivo, BALB/c mice
Protocol: Non-fasted BALB/c mice (6-8 weeks old) were dosed with vehicle or with test compound by intra-tracheal administration (dose volume 20 μL) at time points T=−2 hr, −8 hr, or −12 hr with respect to the start of LPS treatment. The LPS was prepared in a solution of 0.5 mg/mL and aerosolised using a De Vibliss ultrasonic nebuliser 2000 (7 mL during 30 min exposure). At eight hr after LPS challenge, the trachea was cannulated and bronchoalveolar lavage fluid (BALF) extracted by infusing and then withdrawing PBS (1 mL) into the lungs via the tracheal catheter. This procedure was repeated to give a yield of approximately 2 mL lavage fluid. Total cell numbers in the BALF samples were measured using a haemocytometer. Cytospin smears of the BALF samples were prepared by centrifugation at 1200 rpm for 2 min at RT and stained using a DiffQuik stain system (Dade Behring) for differential cell counts. Cells were counted using oil immersion microscopy. Data are expressed as neutrophil number of cells per mL of BALF (mean±S.E.M).

[3] = 0.2 mg/mL intra-tracheal, pre-dose time 8 hr

EC50 [1]: 7.4 nM
EC50 (IFNγ-primed U937 cells): 11.8 nM
SMILES: COCCOCCOCC#Cc1cccc2nc(Cn3nc(-c4cc(O)cc(F)c4)c4c(N)ncnc43)n(Cc3ccccc3C(F)(F)F)c(=O)c12 [Compound (I), 2-((4-Amino-3-(3-fluoro-5-hydroxyphenyl)-1H-pyrazolo[3,4-d]pyrimidin-1-yl)methyl)-5-(3-(2-(2-methoxyethoxy)ethoxy)prop-1-yn-1-yl)-3-(2-(trifluoromethyl)benzyl)quinazolin-4(3H)-one]
Neutrophil numbers in BALF, % inhibition ([2]; 0.05 mg/mL intra-tracheal, pre-dose time 2 hr): 2.5 (19) %
Neutrophil numbers in BALF, % inhibition ([2]; 0.2 mg/mL intra-tracheal, pre-dose time 2 hr): 1.4 (53) %
Neutrophil numbers in BALF (mean ± SEM) [2, 3]: 9.4 ± 2.0 ×10^5/mL
Neutrophil numbers in BALF, % inhibition [2, 3]: 45%
Neutrophil numbers in BALF, % inhibition ([2]; 0.2 mg/mL intra-tracheal, pre-dose time 12 h): 23%
Neutrophil numbers in BALF, % inhibition ([2]; 1.0 mg/mL intra-tracheal, pre-dose time 2 hr): 68%
